Test results reported in article PMC6896485, “Aryl derivatives of 3H-1,2-benzoxathiepine 2,2-dioxide as carbonic anhydrase inhibitors” (Journal of Enzyme Inhibition and Medicinal Chemistry, 2019).
Like-named read-outs stand apart in the source and are kept apart here.

Experiments:
hCA XII = molecular target: T1, hCA XII (Homo sapiens, UniProt O43570); assay: stopped-flow CO2 hydration; format: biochemical; settings: read-out: KI (nM) ^* / CA XII
T1 construct: gene CA12; recombinant, obtained in-house
T1 sequence (O43570 25-354): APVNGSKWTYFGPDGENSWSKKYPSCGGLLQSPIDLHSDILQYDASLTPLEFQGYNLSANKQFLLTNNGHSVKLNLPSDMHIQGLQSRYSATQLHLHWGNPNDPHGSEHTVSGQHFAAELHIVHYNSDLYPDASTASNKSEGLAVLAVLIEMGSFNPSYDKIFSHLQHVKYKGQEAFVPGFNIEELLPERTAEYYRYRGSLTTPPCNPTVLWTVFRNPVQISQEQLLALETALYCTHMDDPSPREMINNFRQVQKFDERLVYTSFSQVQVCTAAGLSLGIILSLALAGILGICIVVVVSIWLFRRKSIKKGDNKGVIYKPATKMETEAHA
Excerpt: (§1) stopped-flow CO2 hydration on hCA XII

hCA IX = molecular target: T2, hCA IX (Homo sapiens, UniProt Q16790); assay: stopped-flow CO2 hydration; format: biochemical; settings: read-out: KI (nM) ^* / CA IX
T2 construct: gene CA9; recombinant, obtained in-house
Excerpt: stopped-flow CO2 hydration on hCA IX

[1] = stopped-flow CO2 hydration; format: biochemical, Homo sapiens; settings: read-out: KI (nM) ^* / CA I
Excerpt: as §1

[2] = CO2 […], Hepes pH […] Na2SO4, […] h preincubation at room temperature

Structure (SMILES)	Ki (hCA XII) [nM]	Ki (hCA IX) [nM]	Ki [1] [nM]	Ki (hCA XII; [2]) [nM]	Ki (hCA IX; [2]) [nM]
O=S1(=O)CC=Cc2cccc(Br)c2O1 [compound 29, 9-Bromo-3H-1,2-benzoxathiepine 2,2-dioxide]	3820	755	–	–	–
CCOC(=O)c1ccc(-c2cccc3c2OS(=O)(=O)CC=C3)cc1 [compound 34, 9–(4-(Ethoxycarbonyl)phenyl)-3H-1,2-benzoxathiepine 2,2-dioxide]	–	16400	> 100000	–	–
O=S1(=O)CC=Cc2cccc(-c3ccccc3)c2O1 [compound 30, 9-Phenyl-3H-1,2-benzoxathiepine 2,2-dioxide]	–	21100	> 100000	–	–
O=S1(=O)CC=Cc2cc(-c3ccc(F)cc3)ccc2O1 [compound 10, 7–(4-Fluorophenyl)-3H-1,2-benzoxathiepine 2,2-dioxide]	890	331	–	–	–
O=S1(=O)CC=Cc2cccc(-c3ccc(F)cc3)c2O1 [compound 32, 9–(4-Fluorophenyl)-3H-1,2-benzoxathiepine 2,2-dioxide]	–	33700	> 100000	–	–
O=S1(=O)CC=Cc2cc(-c3ccccc3)ccc2O1 [compound 8, 7-Phenyl-3H-1,2-benzoxathiepine 2,2-dioxide]	1380	655	–	–	–
O=S1(=O)CC=Cc2cc(-c3ccc(C(F)(F)F)cc3)ccc2O1 [compound 11, 7–(4-(Trifluoromethyl)phenyl)-3H-1,2-benzoxathiepine 2,2-dioxide]	4020	221	–	–	–
CCOC(=O)c1ccc(-c2ccc3c(c2)C=CCS(=O)(=O)O3)cc1 [compound 12, 7–(4-(Ethoxycarbonyl)phenyl)-3H-1,2-benzoxathiepine 2,2-dioxide]	2400	621	–	–	–
COc1ccc(-c2ccc3c(c2)C=CCS(=O)(=O)O3)cc1 [compound 9, 7–(4-Methoxyphenyl)-3H-1,2-benzoxathiepine 2,2-dioxide]	2930	408	–	–	–
O=S1(=O)CC=Cc2ccc(-c3ccc(C(F)(F)F)cc3)cc2O1 [compound 24, 8–(4-(Trifluoromethyl)phenyl)-3H-1,2-benzoxathiepine 2,2-dioxide]	248	–	–	–	44
COc1ccc(-c2cccc3c2OS(=O)(=O)CC=C3)cc1 [compound 31, 9–(4-Methoxyphenyl)-3H-1,2-benzoxathiepine 2,2-dioxide]	–	60900	> 100000	–	–
O=S1(=O)CC=Cc2cccc(-c3ccc(C(F)(F)F)cc3)c2O1 [compound 33, 9–(4-(Trifluoromethyl)phenyl)-3H-1,2-benzoxathiepine 2,2-dioxide]	–	47100	> 100000	–	–

Continued, values first:

Ki (hCA XII) [nM]	Ki (hCA IX) [nM]	Ki [1] [nM]	Ki (hCA XII; [2]) [nM]	Ki (hCA IX; [2]) [nM]	Structure (SMILES)
455	66.2	–	–	–	O=S1(=O)CC=Cc2cc(I)ccc2O1 [compound 7, 7-Iodo-3H-1,2-benzoxathiepine 2,2-dioxide]
289	79.8	–	–	–	CCOC(=O)c1ccc(-c2ccc3c(c2)OS(=O)(=O)CC=C3)cc1 [compound 25, 8–(4-(Ethoxycarbonyl)phenyl)-3H-1,2-benzoxathiepine 2,2-dioxide]
473	105	–	–	–	O=S1(=O)CC=Cc2ccc(-c3ccccc3)cc2O1 [compound 21, 8-Phenyl-3H-1,2-benzoxathiepine 2,2-dioxide]
–	95.2	–	77.9	–	O=S1(=O)CC=Cc2ccc(-c3ccc(F)cc3)cc2O1 [compound 23, 8–(4-Fluorophenyl)-3H-1,2-benzoxathiepine 2,2-dioxide]
133	47.5	–	–	–	O=S1(=O)CC=Cc2ccc(Br)cc2O1 [compound 20, 8-Bromo-3H-1,2-benzoxathiepine 2,2-dioxide]
169	63.1	–	–	–	COc1ccc(-c2ccc3c(c2)OS(=O)(=O)CC=C3)cc1 [compound 22, 8–(4-Methoxyphenyl)-3H-1,2-benzoxathiepine 2,2-dioxide]
